Patent publication US20230085307A1, “PYRIDAZINONE COMPOUND AND HERBICIDE” (NISSAN CHEMICAL CORPORATION, priority 2019, published 2023)

Key:
[1] = tested on: Japanese bulrush; experiment: Test Example 1: herbicidal activity, application before weed generation under submerged conditions (Table 16, symbol B); assay type: in vivo, Japanese bulrush (Schoenoplectus juncoides); settings: amount of applied herbicide 320 g/ha
Outline: (§1)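 Submerged Wagner pots (alluvial soil, 4 cm water) sown with weed seeds and planted with 2.5-leaf rice seedlings; emulsifiable concentrate diluted in water applied to water surface on sowing day. Held in greenhouse at 25-30 °C; injury scored 0-5 by herbicidal rate after three weeks.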

[2] = tested on: Italian ryegrass; experiment: Test Example 5: herbicidal effect by foliage application, plastic box (Table 20, symbol K); assay type: in vivo, Italian ryegrass (Lolium multiflorum); settings: foliage application, 320 g/ha, three weeks after application
Outline: (§2)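 Foliar spray test: emulsion formulation diluted in water to a set application rate, sprayed onto 14-day-old plants raised in diluvial soil at 25° C to 30° C under glass. Both herbicidal effect and crop effect rated visually three weeks later.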

[3] = tested on: southern crabgrass; experiment: Test Example 5: herbicidal effect by foliage application, plastic box (Table 20, symbol F); assay type: in vivo, southern crabgrass (Digitaria ciliaris); settings: foliage application, 320 g/ha, three weeks after application
Outline: as §2

[4] = tested on: wild oat; experiment: Test Example 5: herbicidal effect by foliage application, plastic box (Table 20, symbol I); assay type: in vivo, wild oat (Avena fatua); settings: foliage application, 320 g/ha, three weeks after application
Outline: as §2

[5] = tested on: green foxtail; experiment: Test Example 5: herbicidal effect by foliage application, plastic box (Table 20, symbol G); assay type: in vivo, green foxtail (Setaria viridis); settings: foliage application, 320 g/ha, three weeks after application
Outline: as §2

[6] = tested on: windgrass; experiment: Test Example 5: herbicidal effect by foliage application, plastic box (Table 20, symbol L); assay type: in vivo, windgrass (Apera spica-venti); settings: foliage application, 320 g/ha, three weeks after application
Outline: as §2

[7] = tested on: lambsquarters; experiment: Test Example 5: herbicidal effect by foliage application, plastic box (Table 20, symbol O); assay type: in vivo, lambsquarters (Chenopodium album); settings: foliage application, 320 g/ha, three weeks after application
Outline: as §2

[8] = tested on: Chinese sprangletop; experiment: Test Example 3: herbicidal effect by foliage application, Wagner pot (Table 18, symbol D); assay type: in vivo, chinese sprangletop (Leptochloa chinensis); settings: 320 g/ha
Outline: (§3)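 Plants were sown in alluvial soil held under 0.1–0.5 cm standing water and grown 14 days in a greenhouse at 25–30 °C. An emulsifiable formulation, water-diluted to the set dose, was then sprayed onto the foliage, and effects were scored three weeks later using previously defined criteria.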

[9] = tested on: blackgrass; experiment: Test Example 5: herbicidal effect by foliage application, plastic box (Table 20, symbol J); assay type: in vivo, blackgrass (Alopecurus myosuroides); settings: foliage application, 320 g/ha, three weeks after application
Outline: as §2

[10] = tested on: oval-leafed pondweed; experiment: Test Example 2: herbicidal activity, application during weed generation under submerged conditions (Table 17, symbol C); assay type: in vivo, oval-leafed pondweed (Monochoria vaginalis); settings: AAH 320 g/ha; application during weed generation, submerged conditions
Outline: (§4)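 Effect on each weed is rated three weeks post-treatment, using the same scoring criteria as the preceding test. Plants grow from mixed-sown seed in flooded alluvial soil (4 cm water) at 25° C. to 30° C., and are treated at one to two leaves with diluted emulsion dropped onto the water.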

[11] = tested on: velvetleaf; experiment: Test Example 5: herbicidal effect by foliage application, plastic box (Table 20, symbol M); assay type: in vivo, velvetleaf (Abutilon theophrasti); settings: foliage application, 320 g/ha, three weeks after application
Outline: as §2

[12] = tested on: Japanese bulrush; experiment: Test Example 2: herbicidal activity, application during weed generation under submerged conditions (Table 17, symbol B); assay type: in vivo, Japanese bulrush (Schoenoplectus juncoides); settings: AAH 320 g/ha; application during weed generation, submerged conditions
Outline: as §4

[13] = tested on: barnyard grass; experiment: Test Example 5: herbicidal effect by foliage application, plastic box (Table 20, symbol H); assay type: in vivo, barnyard grass (Echinochloa crus-galli); settings: foliage application, 320 g/ha, three weeks after application
Outline: as §2

[14] = tested on: barnyard grass; experiment: Test Example 3: herbicidal effect by foliage application, Wagner pot (Table 18, symbol H); assay type: in vivo, barnyard grass (Echinochloa crus-galli); settings: 320 g/ha
Outline: as §3

[15] = tested on: persian speedwell; experiment: Test Example 5: herbicidal effect by foliage application, plastic box (Table 20, symbol R); assay type: in vivo, Persian speedwell (Veronica persica); settings: foliage application, 320 g/ha, three weeks after application
Outline: as §2

[16] = tested on: rice flat sedge; experiment: Test Example 3: herbicidal effect by foliage application, Wagner pot (Table 18, symbol E); assay type: in vivo, rice flat sedge (Cyperus iria); settings: 320 g/ha
Outline: as §3

[17] = tested on: oval-leafed pondweed; experiment: Test Example 1: herbicidal activity, application before weed generation under submerged conditions (Table 16, symbol C); assay type: in vivo, oval-leafed pondweed (Monochoria vaginalis); settings: amount of applied herbicide 320 g/ha
Outline: as §1

[18] = tested on: late watergrass; experiment: Test Example 2: herbicidal activity, application during weed generation under submerged conditions (Table 17, symbol A); assay type: in vivo, late watergrass (Echinochloa oryzicola); settings: AAH 320 g/ha; application during weed generation, submerged conditions
Outline: as §4

[19] = tested on: late watergrass; experiment: Test Example 1: herbicidal activity, application before weed generation under submerged conditions (Table 16, symbol A); assay type: in vivo, late watergrass (Echinochloa oryzicola); settings: amount of applied herbicide 320 g/ha
Outline: as §1

SMILES	Herbicidal effect, B: Japanese bulrush [1]	herbicidal effect on Italian ryegrass (K) [2]	herbicidal effect on southern crabgrass (F) [3]	herbicidal effect on wild oat (I) [4]	herbicidal effect on green foxtail (G) [5]	herbicidal effect on windgrass (L) [6]	herbicidal effect on lambsquarters (O) [7]	herbicidal effect on Chinese sprangletop (D) [8]	herbicidal effect on blackgrass (J) [9]	herbicidal effect rating, C: oval-leafed pondweed [10]	herbicidal effect on velvetleaf (M) [11]	herbicidal effect rating, B: Japanese bulrush [12]	herbicidal effect on barnyard grass (H) [13]	herbicidal effect on barnyard grass (H) [14]	herbicidal effect on persian speedwell (R) [15]	herbicidal effect on rice flat sedge (E) [16]	Herbicidal effect, C: oval-leafed pondweed [17]	herbicidal effect rating, A: late watergrass [18]	Herbicidal effect, A: late watergrass [19]
CCCC(=O)Oc1c(C)nn(C)c(=O)c1-c1c(-c2ccc(OC)cc2)sc2cc(C)c(C)cc12 [5-093]	0 (Herbicidal rate of 5% or less (almost no effect))	0 (Herbicidal rate of 5% or less (almost no effect))	0 (Herbicidal rate of 5% or less (almost no effect))	0 (Herbicidal rate of 5% or less (almost no effect))	0 (Herbicidal rate of 5% or less (almost no effect))	0 (Herbicidal rate of 5% or less (almost no effect))	3 (Herbicidal rate of 40% or more and less than 70%)	2 (Herbicidal rate of 20% or more and less than 40%)	0 (Herbicidal rate of 5% or less (almost no effect))	0 (Herbicidal rate of 5% or less (almost no effect))	1 (Herbicidal rate of 5% or more and less than 20%)	0 (Herbicidal rate of 5% or less (almost no effect))	0 (Herbicidal rate of 5% or less (almost no effect))	1 (Herbicidal rate of 5% or more and less than 20%)	0 (Herbicidal rate of 5% or less (almost no effect))	2 (Herbicidal rate of 20% or more and less than 40%)	0 (Herbicidal rate of 5% or less (almost no effect))	2 (Herbicidal rate of 20% or more and less than 40%)	2 (Herbicidal rate of 20% or more and less than 40%)
CCCC(=O)Oc1c(C)nn(C)c(=O)c1-c1c(-c2ccc(F)cc2OCC)sc2cc(C)c(C)cc12 [5-104]	0 (Herbicidal rate of 5% or less (almost no effect))	4 (Herbicidal rate of 70% or more and less than 90%)	5 (Herbicidal rate of 90% or more (almost completely withered))	4 (Herbicidal rate of 70% or more and less than 90%)	4 (Herbicidal rate of 70% or more and less than 90%)	4 (Herbicidal rate of 70% or more and less than 90%)	4 (Herbicidal rate of 70% or more and less than 90%)	5 (Herbicidal rate of 90% or more (almost completely withered))	4 (Herbicidal rate of 70% or more and less than 90%)	4 (Herbicidal rate of 70% or more and less than 90%)	4 (Herbicidal rate of 70% or more and less than 90%)	4 (Herbicidal rate of 70% or more and less than 90%)	4 (Herbicidal rate of 70% or more and less than 90%)	5 (Herbicidal rate of 90% or more (almost completely withered))	5 (Herbicidal rate of 90% or more (almost completely withered))	4 (Herbicidal rate of 70% or more and less than 90%)	0 (Herbicidal rate of 5% or less (almost no effect))	4 (Herbicidal rate of 70% or more and less than 90%)	4 (Herbicidal rate of 70% or more and less than 90%)
